Columns and labels:
Type in all cases: in vivo
[1] = system: Galium (catchweed bedstraw, Galium aparine); assay: Test A postemergence; conditions: Galium, post-emergence, 240 h, postemergence, read-out: Galium plant response rating
Method in brief: (§1)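 Treatment is preemergence as a directed soil spray after planting, or postemergence at the one- to two-leaf stage, with test chemical in a non-phytotoxic solvent mixture plus surfactant. Plants stay in the greenhouse about 10 d before visual injury scoring on a 0 to 100 scale versus untreated controls.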

[2] = system: wheat (Triticum aestivum); assay: Test A postemergence; conditions: Triticum aestivum, post-emergence, 240 h, postemergence, read-out: Wheat plant response rating
Method in brief: as §1

[3] = system: pigweed (Amaranthus retroflexus); assay: Test A postemergence; conditions: Amaranthus retroflexus, post-emergence, 240 h, postemergence, read-out: Pigweed plant response rating
Method in brief: as §1

[4] = system: blackgrass (Alopecurus myosuroides); assay: Test A postemergence; conditions: Alopecurus myosuroides, post-emergence, 240 h, postemergence, read-out: Blackgrass plant response rating
Method in brief: as §1

Kochia (Kochia scoparia) [5] = assay: Test A postemergence; conditions: Bassia scoparia, post-emergence, 240 h, postemergence, read-out: Kochia plant response rating
Method in brief: as §1

corn (Zea mays) = assay: Test A postemergence; conditions: Zea mays, post-emergence, 240 h, postemergence, read-out: Corn plant response rating
Method in brief: as §1

[6] = system: ragweed (common ragweed, Ambrosia elatior); assay: Test A postemergence; conditions: Ambrosia artemisiifolia, post-emergence, 240 h, postemergence, read-out: Ragweed plant response rating
Method in brief: as §1

[7] = system: barnyardgrass (Echinochloa crus-galli); assay: Test A postemergence; conditions: Echinochloa crus-galli, post-emergence, 240 h, postemergence, read-out: Barnyardgrass plant response rating
Method in brief: as §1

[8] = system: giant foxtail (Setaria faberii); assay: Test A postemergence; conditions: Setaria faberi, post-emergence, 240 h, postemergence, read-out: Foxtail, Giant plant response rating
Method in brief: as §1

[9] = system: ryegrass, Italian (Italian ryegrass, Lolium multiflorum); assay: Test A postemergence; conditions: Lolium multiflorum, post-emergence, 240 h, postemergence, read-out: Ryegrass, Italian plant response rating
Method in brief: as §1

[10] = system: pigweed (Amaranthus retroflexus); assay: Test A preemergence; conditions: Amaranthus retroflexus, pre-emergence, 240 h, preemergence, 0 to 100 scale where 0 is no effect and 100 is complete control, read-out: Pigweed plant response rating
Kochia (Kochia scoparia) [11] = assay: Test A preemergence; conditions: Bassia scoparia, pre-emergence, 240 h, preemergence, 0 to 100 scale where 0 is no effect and 100 is complete control, read-out: Kochia plant response rating
Method in brief: as §1

[12] = system: ragweed (common ragweed, Ambrosia elatior); assay: Test A preemergence; conditions: Ambrosia artemisiifolia, pre-emergence, 240 h, preemergence, 0 to 100 scale where 0 is no effect and 100 is complete control, read-out: Ragweed plant response rating
Method in brief: as §1

[13] = system: barnyardgrass (Echinochloa crus-galli); assay: Test A preemergence; conditions: Echinochloa crus-galli, pre-emergence, 240 h, preemergence, read-out: Barnyardgrass plant response rating
Method in brief: as §1

[14] = system: giant foxtail (Setaria faberii); assay: Test A preemergence; conditions: Setaria faberi, pre-emergence, 240 h, preemergence, 0 to 100 scale where 0 is no effect and 100 is complete control, read-out: Foxtail, Giant plant response rating
Method in brief: as §1

[15] = system: ryegrass, Italian (Italian ryegrass, Lolium multiflorum); assay: Test A preemergence; conditions: Lolium multiflorum, pre-emergence, 240 h, preemergence, 0 to 100 scale where 0 is no effect and 100 is complete control, read-out: Ryegrass, Italian plant response rating
Method in brief: as §1

[16] = 125 g ai/ha, visual injury on 0 to 100 scale (0 no effect, 100 complete control), approx. 10 d
[17] = 500 g ai/ha, 0 to 100 scale, 0 is no effect, 100 is complete control

Q: For `CN1C[C@H](c2csc3ccccc23)[C@@H](C(=O)Nc2cccc(F)c2F)C1=O` [Compound 1115], which pest or weed control at 125 g/ha [1, 16] is on record?
A: The pest or weed control at 125 g/ha was 0%.

Q: What about the pest or weed control at 500 g/ha [1, 17] of the same compound?
A: The pest or weed control at 500 g/ha was 30%.

Q: What about the plant injury at 125 g/ha [2, 16] of the same compound?
A: Its plant injury at 125 g/ha is 20%.

Q: What about the plant injury at 500 g/ha [2, 17] of the same compound?
A: The plant injury at 500 g/ha was 30%.

Q: What about the pest or weed control at 125 g/ha [3, 16] of the same compound?
A: The pest or weed control at 125 g/ha was 20%.

Q: What about the pest or weed control at 500 g/ha [3, 17] of the same compound?
A: Its pest or weed control at 500 g/ha is 20%.

Q: And the pest or weed control at 125 g/ha [4, 16]?
A: The pest or weed control at 125 g/ha was 30%.

Q: And the pest or weed control at 500 g/ha [4, 17]?
A: Its pest or weed control at 500 g/ha is 40%.

Q: What about the pest or weed control at 125 g/ha (Kochia (Kochia scoparia) [5]; [16]) of the same compound?
A: Its pest or weed control at 125 g/ha is 20%.

Q: What about the pest or weed control at 500 g/ha (Kochia (Kochia scoparia) [5]; [17]) of the same compound?
A: The pest or weed control at 500 g/ha was 40%.

Q: And the plant injury at 125 g/ha (corn (Zea mays); [16])?
A: The plant injury at 125 g/ha was 40%.

Q: And the plant injury at 500 g/ha (corn (Zea mays); [17])?
A: The plant injury at 500 g/ha was 50%.

Q: And the pest or weed control at 125 g/ha [6, 16]?
A: The pest or weed control at 125 g/ha was 0%.

Q: What about the pest or weed control at 500 g/ha [6, 17] of the same compound?
A: Its pest or weed control at 500 g/ha is 30%.

Q: And the pest or weed control at 125 g/ha [7, 16]?
A: Its pest or weed control at 125 g/ha is 80%.

Q: And the pest or weed control at 500 g/ha [7, 17]?
A: Its pest or weed control at 500 g/ha is 90%.

Q: What about the pest or weed control at 125 g/ha [8, 16] of the same compound?
A: The pest or weed control at 125 g/ha was 70%.

Q: And the pest or weed control at 500 g/ha [8, 17]?
A: Its pest or weed control at 500 g/ha is 90%.

Q: And the pest or weed control at 125 g/ha [9, 16]?
A: Its pest or weed control at 125 g/ha is 20%.

Q: What about the pest or weed control at 500 g/ha [9, 17] of the same compound?
A: The pest or weed control at 500 g/ha was 40%.

Q: And the pest or weed control at 125 g/ha ([10]; 125 g ai/ha, approx. 10 d)?
A: Its pest or weed control at 125 g/ha is 0%.

Q: What about the pest or weed control at 500 g/ha ([10]; 500 g ai/ha) of the same compound?
A: The pest or weed control at 500 g/ha was 40%.

Q: And the pest or weed control at 125 g/ha (Kochia (Kochia scoparia) [11]; 125 g ai/ha, approx. 10 d)?
A: Its pest or weed control at 125 g/ha is 70%.

Q: What about the pest or weed control at 500 g/ha (Kochia (Kochia scoparia) [11]; 500 g ai/ha) of the same compound?
A: Its pest or weed control at 500 g/ha is 70%.

Q: What about the pest or weed control at 125 g/ha ([12]; 125 g ai/ha, approx. 10 d) of the same compound?
A: Its pest or weed control at 125 g/ha is 0%.

Q: What about the pest or weed control at 500 g/ha ([12]; 500 g ai/ha) of the same compound?
A: The pest or weed control at 500 g/ha was 20%.

Q: What about the pest or weed control at 125 g/ha ([13]; 125 g ai/ha, 0 to 100 scale where 0 is no effect and 100 is complete control, approx. 10 d) of the same compound?
A: The pest or weed control at 125 g/ha was 90%.

Q: And the pest or weed control at 500 g/ha ([13]; 500 g ai/ha, visual injury rating about 10 d after treatment, 0 to 100 scale (0 no effect, 100 complete control))?
A: Its pest or weed control at 500 g/ha is 90%.

Q: And the pest or weed control at 125 g/ha ([14]; 125 g ai/ha, approx. 10 d)?
A: The pest or weed control at 125 g/ha was 90%.

Q: What about the pest or weed control at 500 g/ha ([14]; 500 g ai/ha) of the same compound?
A: Its pest or weed control at 500 g/ha is 90%.

Q: What about the pest or weed control at 125 g/ha ([15]; 125 g ai/ha, approx. 10 d) of the same compound?
A: Its pest or weed control at 125 g/ha is 50%.

Q: What about the pest or weed control at 500 g/ha ([15]; 500 g ai/ha) of the same compound?
A: The pest or weed control at 500 g/ha was 60%.

— patent publication US12077503B2, “Substituted cyclic amides and their use as herbicides” (FMC CORPORATION, priority 2015, dated 2024)
